Data as given in patent publication US20260022142A1, “MACROCYCLIC IMMUNOMODULATORS” (Bristol-Myers Squibb Company, priority 2022, published 2026).
Bridge positions count the residues as written; N and C are the ends. Square brackets hold non-standard residues; d marks the D form. Peptide text beside a SMILES is read from it. * marks the point of attachment. ξ: configuration not given here. Bip = N[C@@H](Cc1ccc(-c2ccccc2)cc1)C(=O)O; Ala(2-furyl) = N[C@@H](Cc1ccco1)C(=O)O; Phe(3-Me) = Cc1cccc(C[C@H](N)C(=O)O)c1; Val(3-OH) = CC(C)(O)[C@H](N)C(=O)O; hhPhe = N[C@@H](CCCc1ccccc1)C(=O)O; hArg = N=C(N)NCCCC[C@H](N)C(=O)O; Abu(4-CN) = N#CCC[C@H](N)C(=O)O; Cha = N[C@@H](CC1CCCCC1)C(=O)O; Cit = NC(=O)NCCC[C@H](N)C(=O)O; Thr(3ξ) = CC(O)[C@H](N)C(=O)O; dDab = NCC[C@@H](N)C(=O)O; hSer = N[C@@H](CCO)C(=O)O; Carboxymethyl = O=C(O)C*; Orn = NCCC[C@H](N)C(=O)O; Aun = NCCCCCCCCCCC(=O)O; Dab = NCC[C@H](N)C(=O)O

Target: T1, PD-1/PD-L1 interaction (PE-labeled human PD-L1-Ig binding to Jurkat cell line over-expressing human PD-1) (Homo sapiens, UniProt Q15116)
T1 construct: expressed in transfected cells; host or cells: Jurkat
T1 sequence (Q15116 25-288): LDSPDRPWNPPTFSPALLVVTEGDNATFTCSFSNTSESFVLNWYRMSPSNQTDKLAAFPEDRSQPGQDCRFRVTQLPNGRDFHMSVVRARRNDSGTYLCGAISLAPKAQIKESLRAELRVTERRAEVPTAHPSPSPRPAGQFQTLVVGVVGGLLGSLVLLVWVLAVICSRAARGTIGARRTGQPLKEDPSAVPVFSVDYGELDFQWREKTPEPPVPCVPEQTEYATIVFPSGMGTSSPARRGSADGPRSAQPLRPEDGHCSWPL
Assay: Jurkat-PD-1 Cell Binding High-Content Screening Assay (CBA)
Format: cell-based
Settings: Jurkat cell line over-expressing human PD-1; PE-labeled PD-L1-Ig 20 nM final; read-out: Jurkat hPD1-PDL1 IC50
Summary of the method: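 Binding of fluorescent PD-L1-Ig (phycoerythrin on Ig tag, 20 nM final, 1 h) measured by high-content imaging of fixed, Hoechst-counterstained Jurkat-hPD-1 cells. Compound added 2 h at 37° C beforehand, in DMEM with 10% fetal calf serum.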

CC(C)C[C@H]1NC(=O)[C@H](CCCN)NC(=O)[C@H](Cc2ccc(O)cc2)NC(=O)[C@H](Cc2ccc(-c3ccccc3)cc2)NC(=O)[C@H](C(C)C)NC(=O)[C@H](Cc2c[nH]c3ccccc23)NC(=O)[C@H](CC(=O)O)NC(=O)[C@H](Cc2ccc(OCC(=O)O)cc2)NC(=O)[C@H](CCCCNC(=N)N)NC(=O)CSC[C@@H](C(=O)N[C@@H](CCN)C(=O)NCCCCCCCCCCC(=O)O)NC(=O)[C@H](C(C)O)NC(=O)[C@H](C(C)C)NC(=O)[C@H](CC2CCCCC2)NC(=O)[C@H](CCN)NC1=O (stereo partly drawn) [Compound 3410] ({CH2CO}-[hArg]Y(Carboxymethyl)DWV[Bip]Y[Orn][dL][Dab][Cha]V[Thr(3ξ)]C[Dab][Aun]-OH; thioether N-14)
IC50: 0.0202 µM

CC(C)C[C@H]1NC(=O)[C@H](CCCN)NC(=O)[C@H](Cc2ccc(O)cc2)NC(=O)[C@H](Cc2ccc(-c3ccccc3)cc2)NC(=O)[C@H](C(C)C)NC(=O)[C@H](Cc2c[nH]c3ccccc23)NC(=O)[C@H](CC(=O)O)NC(=O)[C@H](Cc2ccc(OCC(=O)O)cc2)NC(=O)[C@H](CCCNC(=N)N)NC(=O)CSC[C@@H](C(=O)N[C@@H](CCN)C(=O)NCCCCCCCCCCC(=O)O)NC(=O)[C@H](CCCNC(N)=O)NC(=O)[C@H](C(C)C)NC(=O)[C@H](CC2CCCCC2)NC(=O)[C@H](CCN)NC1=O [Compound 3411] ({CH2CO}-RY(Carboxymethyl)DWV[Bip]Y[Orn][dL][Dab][Cha]V[Cit]C[Dab][Aun]-OH; thioether N-14)
IC50: 0.011 µM

CC(C)C[C@H]1NC(=O)[C@H](CCCN)NC(=O)[C@H](Cc2ccc(O)cc2)NC(=O)[C@H](Cc2ccc(-c3ccccc3)cc2)NC(=O)[C@H](C(C)C)NC(=O)[C@H](Cc2c[nH]c3ccccc23)NC(=O)[C@H](CC(=O)O)NC(=O)[C@H](Cc2ccc(OCC(=O)O)cc2)NC(=O)[C@H](CCCNC(=N)N)NC(=O)CSC[C@@H](C(=O)N[C@@H](CCN)C(=O)NCCCCCCCCCCC(=O)O)NC(=O)[C@H](CCO)NC(=O)[C@H](C(C)C)NC(=O)[C@H](CC2CCCCC2)NC(=O)[C@H](CCN)NC1=O [Compound 3412] ({CH2CO}-RY(Carboxymethyl)DWV[Bip]Y[Orn][dL][Dab][Cha]V[hSer]C[Dab][Aun]-OH; thioether N-14)
IC50: 0.0164 µM

CC(C)C[C@H]1NC(=O)[C@H](CCCN)NC(=O)[C@H](Cc2ccc(O)cc2)NC(=O)[C@H](Cc2ccc(-c3ccccc3)cc2)NC(=O)[C@H](C(C)C)NC(=O)[C@H](Cc2c[nH]c3ccccc23)NC(=O)[C@H](CC(=O)O)NC(=O)[C@H](Cc2ccc(OCC(=O)O)cc2)NC(=O)[C@H](CCCNC(=N)N)NC(=O)CSC[C@@H](C(=O)N[C@@H](CCN)C(=O)NCCCCCCCCCCC(=O)O)NC(=O)[C@H](C(C)O)NC(=O)[C@H](C(C)C)NC(=O)[C@H](CC2CCCCC2)NC(=O)[C@H](CCN)NC1=O (stereo partly drawn) [Compound 3413] ({CH2CO}-RY(Carboxymethyl)DWV[Bip]Y[Orn][dL][Dab][Cha]V[Thr(3ξ)]C[Dab][Aun]-OH; thioether N-14)
IC50: 0.0333 µM

CC(C)C[C@H]1NC(=O)[C@H](CCCN)NC(=O)[C@H](Cc2ccc(O)cc2)NC(=O)[C@H](Cc2ccc(-c3ccccc3)cc2)NC(=O)[C@H](C(C)C)NC(=O)[C@H](Cc2c[nH]c3ccccc23)NC(=O)[C@H](CC(=O)O)NC(=O)[C@H](Cc2ccc(OCC(=O)O)cc2)NC(=O)[C@H](C(C)(C)O)NC(=O)CSC[C@@H](C(=O)N[C@@H](CCN)C(=O)NCCCCCCCCCCC(=O)O)NC(=O)[C@H](C(C)O)NC(=O)[C@H](C(C)C)NC(=O)[C@H](CC2CCCCC2)NC(=O)[C@H](CCN)NC1=O (stereo partly drawn) [Compound 3414] ({CH2CO}-[Val(3-OH)]Y(Carboxymethyl)DWV[Bip]Y[Orn][dL][Dab][Cha]V[Thr(3ξ)]C[Dab][Aun]-OH; thioether N-14)
IC50: 0.0737 µM

CC(C)C[C@H]1NC(=O)[C@H](CCCN)NC(=O)[C@H](Cc2ccc(O)cc2)NC(=O)[C@H](Cc2ccc(-c3ccccc3)cc2)NC(=O)[C@H](C(C)C)NC(=O)[C@H](Cc2c[nH]c3ccccc23)NC(=O)[C@H](CC(=O)O)NC(=O)[C@H](Cc2ccc(OCC(=O)O)cc2)NC(=O)[C@H](CCCNC(=N)N)NC(=O)CSC[C@@H](C(=O)N[C@@H](CCN)C(=O)NCCCCCCCCCCC(=O)O)NC(=O)[C@H](Cc2ccco2)NC(=O)[C@H](C(C)C)NC(=O)[C@H](CC2CCCCC2)NC(=O)[C@H](CCN)NC1=O [Compound 3415] ({CH2CO}-RY(Carboxymethyl)DWV[Bip]Y[Orn][dL][Dab][Cha]V[Ala(2-furyl)]C[Dab][Aun]-OH; thioether N-14)
IC50: 0.0736 µM

CC(C)C[C@H]1NC(=O)[C@H](CCCN)NC(=O)[C@H](Cc2ccc(O)cc2)NC(=O)[C@H](Cc2ccc(-c3ccccc3)cc2)NC(=O)[C@H](C(C)C)NC(=O)[C@H](Cc2c[nH]c3ccccc23)NC(=O)[C@H](CC(=O)O)NC(=O)[C@H](Cc2ccc(OCC(=O)O)cc2)NC(=O)[C@H](CCCNC(=N)N)NC(=O)CSC[C@@H](C(=O)N[C@@H](CCN)C(=O)NCCCCCCCCCCC(=O)O)NC(=O)[C@H](CCC#N)NC(=O)[C@H](C(C)C)NC(=O)[C@H](CC2CCCCC2)NC(=O)[C@H](CCN)NC1=O [Compound 3418] ({CH2CO}-RY(Carboxymethyl)DWV[Bip]Y[Orn][dL][Dab][Cha]V[Abu(4-CN)]C[Dab][Aun]-OH; thioether N-14)
IC50: 0.0362 µM

Cc1cccc(C[C@@H]2NC(=O)[C@H](CC(=O)O)NC(=O)[C@H](Cc3ccc(OCC(=O)O)cc3)NC(=O)[C@H](CCCNC(=N)N)NC(=O)CSC[C@@H](C(=O)N[C@@H](CCN)C(=O)NCCCCCCCCCCC(=O)O)NC(=O)[C@H](C(C)O)NC(=O)[C@H](C(C)C)NC(=O)[C@H](CC3CCCCC3)NC(=O)[C@H](CCN)NC(=O)[C@@H](CC(C)C)NC(=O)[C@H](CCCN)NC(=O)[C@H](Cc3ccc(O)cc3)NC(=O)[C@H](Cc3ccc(-c4ccccc4)cc3)NC(=O)[C@H](CCCc3ccccc3)NC2=O)c1 (stereo partly drawn) [Compound 3420] ({CH2CO}-RY(Carboxymethyl)D[Phe(3-Me)][hhPhe][Bip]Y[Orn][dL][Dab][Cha]V[Thr(3ξ)]C[Dab][Aun]-OH; thioether N-14)
IC50: 0.0609 µM

CC(C)C[C@H]1NC(=O)[C@H](CCCN)NC(=O)[C@H](Cc2ccc(O)cc2)NC(=O)[C@H](Cc2ccc(-c3ccccc3)cc2)NC(=O)[C@H](C(C)C)NC(=O)[C@H](Cc2c[nH]c3ccccc23)NC(=O)[C@H](CC(=O)O)NC(=O)[C@H](Cc2ccc(OCC(=O)O)cc2)NC(=O)[C@H](CC(N)=O)NC(=O)CSC[C@@H](C(=O)N[C@@H](CCN)C(=O)NCCCCCCCCCCC(=O)O)NC(=O)[C@H](C(C)O)NC(=O)[C@H](C(C)C)NC(=O)[C@H](CC2CCCCC2)NC(=O)[C@H](CCN)NC1=O (stereo partly drawn) [Compound 3421] ({CH2CO}-NY(Carboxymethyl)DWV[Bip]Y[Orn][dL][Dab][Cha]V[Thr(3ξ)]C[Dab][Aun]-OH; thioether N-14)
IC50: 0.0336 µM

CC(C)C[C@H]1NC(=O)[C@H](CCCN)NC(=O)[C@H](Cc2ccc(O)cc2)NC(=O)[C@H](Cc2ccc(-c3ccccc3)cc2)NC(=O)[C@H](C(C)C)NC(=O)[C@H](Cc2c[nH]c3ccccc23)NC(=O)[C@H](CC(=O)O)NC(=O)[C@H](Cc2ccc(OCC(=O)O)cc2)NC(=O)[C@H](C(C)O)NC(=O)CSC[C@@H](C(=O)N[C@H](CCN)C(=O)NCCCCCCCCCCC(=O)O)NC(=O)[C@H](Cc2ccco2)NC(=O)[C@H](C(C)C)NC(=O)[C@H](CC2CCCCC2)NC(=O)[C@H](CCN)NC1=O (stereo partly drawn) [Compound 3422] ({CH2CO}-[Thr(3ξ)]Y(Carboxymethyl)DWV[Bip]Y[Orn][dL][Dab][Cha]V[Ala(2-furyl)]C[dDab][Aun]-OH; thioether N-14)
IC50: 0.0782 µM
